# Experimental data: ChEMBL document CHEMBL1151449, “In vitro activity of DC-159a, a new broad-spectrum fluoroquinolone, compared with that of other agents against drug-susceptible and -resistant pneumococci” (2008)
# Tests used:
# [1] = test system: Streptococcus pneumoniae; assay: Antibacterial activity against Streptococcus pneumoniae HMC 1072 harboring S81F mutation in quinolone-resistant determining regions of GyrA gene, S79Y mutation in QRDR of ParC gene and I460V mutation in QRDR of ParE gene by agar dilution method; assay type: functional
# [2] = test system: Streptococcus pneumoniae; assay: Antibacterial activity against penicillin- and quinolone-susceptible Streptococcus pneumoniae HMC 5055 expressing mefA after 50 passages by broth microdilution method; assay type: functional
# [3] = test system: Streptococcus pneumoniae; assay: Antibacterial activity against macrolide-, quinolone-susceptible and penicillin-intermediate Streptococcus pneumoniae HMC 100 after 50 passages by broth microdilution method; assay type: functional
# [4] = test system: Streptococcus pneumoniae; assay: Antibacterial activity against penicillin-resistant and quinolone-susceptible Streptococcus pneumoniae HMC 228 expressing ermB after 50 passages by broth microdilution method; assay type: functional
# [5] = test system: Streptococcus pneumoniae; assay: Antibacterial activity against penicillin-resistant and quinolone-susceptible Streptococcus pneumoniae HMC 3583 expressing mefA after 50 passages by broth microdilution method; assay type: functional
# [6] = test system: Streptococcus pneumoniae; assay: Antibacterial activity against macrolide-, quinolone-susceptible and penicillin-intermediate Streptococcus pneumoniae HMC 100 harboring S81Y mutation in quinolone-resistant determining regions of GyrA gene after 22 passages with moxifloxacin measured after 10 daily antibiotic-free subculturing by multi-step resistance selection technique; assay type: functional
# [7] = test system: Streptococcus sp.; assay: Antibacterial activity against Streptococcus sp. by agar dilution method; assay type: functional
# [8] = test system: Streptococcus sp.; assay: Antibacterial activity against levofloxacin-intermediate -resistant Streptococcus sp. by agar dilution method; assay type: functional
# [9] = test system: Streptococcus pneumoniae; assay: Antibacterial activity against penicillin-resistant and quinolone-susceptible Streptococcus pneumoniae HMC 3583 expressing mefA after 49 passages by broth microdilution method; assay type: functional
# [10] = test system: Streptococcus pneumoniae; assay: Antibacterial activity against penicillin-resistant and quinolone-susceptible Streptococcus pneumoniae HMC 228 expressing ermB after 38 passages by broth microdilution method; assay type: functional
# [11] = test system: Streptococcus pneumoniae; assay: Antibacterial activity against penicillin-resistant and quinolone-susceptible Streptococcus pneumoniae HMC 3583 expressing mefA after 46 passages by broth microdilution method; assay type: functional
# [12] = test system: Streptococcus pneumoniae; assay: Antibacterial activity against penicillin-resistant and quinolone-susceptible Streptococcus pneumoniae HMC 228 expressing ermB after 28 passages by broth microdilution method; assay type: functional
# [13] = test system: Streptococcus pneumoniae; assay: Antibacterial activity against penicillin-, macrolide-susceptible and quinolone-resistant Streptococcus pneumoniae HMC 1074 harboring S81F mutation in quinolone-resistant determining regions of GyrA gene, S79F mutation in QRDR of ParC gene and I460V mutation in QRDR of ParE gene after 27 passages by broth microdilution method; assay type: functional
# [14] = test system: Streptococcus pneumoniae; assay: Antibacterial activity against penicillin-resistant and quinolone-susceptible Streptococcus pneumoniae HMC 3583 expressing mefA after 41 passages by broth microdilution method; assay type: functional
# [15] = test system: Streptococcus pneumoniae; assay: Antibacterial activity against macrolide-, quinolone-susceptible and penicillin-intermediate Streptococcus pneumoniae HMC 100 after 42 passages by broth microdilution method; assay type: functional
# [16] = test system: Streptococcus pneumoniae; assay: Antibacterial activity against penicillin-, macrolide- and quinolone-susceptible Streptococcus pneumoniae HMC 63 after 34 passages by broth microdilution method; assay type: functional
# [17] = test system: Streptococcus pneumoniae; assay: Antibacterial activity against macrolide-, quinolone-susceptible and penicillin-intermediate Streptococcus pneumoniae HMC 99 after 41 passages by broth microdilution method
# [18] = test system: Streptococcus pneumoniae; assay: Antibacterial activity against penicillin-resistant and quinolone-susceptible Streptococcus pneumoniae HMC 228 expressing ermB after 36 passages by broth microdilution method; assay type: functional
# [19] = test system: Streptococcus pneumoniae; assay: Antibacterial activity against macrolide-, quinolone-susceptible and penicillin-intermediate Streptococcus pneumoniae HMC 100 after 22 passages by broth microdilution method; assay type: functional
Structure (SMILES),MIC [1] [µg/mL],MIC [2] [µg/mL],MIC [3] [µg/mL],MIC [4] [µg/mL],MIC [5] [µg/mL],MIC [6] [µg/mL],MIC90 [7] [µg/mL],MIC90 [8] [µg/mL],MIC [9] [µg/mL],MIC [10] [µg/mL],MIC [11] [µg/mL],MIC [12] [µg/mL],MIC [13] [µg/mL],MIC [14] [µg/mL],MIC [15] [µg/mL],MIC [16] [µg/mL],MIC [17] [µg/mL],MIC [18] [µg/mL],MIC [19] [µg/mL]
COc1c(N2CC3(CC3)[C@](C)(N)C2)c(F)cc2c(=O)c(C(=O)O)cn([C@@H]3C[C@@H]3F)c12.O,1,0.125,0.5,1,1,0.5,0.125,1,1,1,–,–,–,–,–,–,–,–,–
COc1c(N2CCNC(C)C2)c(F)cc2c(=O)c(C(=O)O)cn(C3CC3)c12 (stereo unspecified) [GATIFLOXACIN],8,0.5,0.5,–,–,4,–,–,–,–,4,4,–,–,–,–,–,–,–
CO/N=C1\CN(c2nc3c(cc2F)c(=O)c(C(=O)O)cn3C2CC2)CC1CN (stereo unspecified) [GEMIFLOXACIN],0.5,0.06,–,0.25,–,0.25,–,–,–,–,–,–,4,0.25,1,0.5,–,–,–
COc1c(N2C[C@@H]3CCCN[C@@H]3C2)c(F)cc2c(=O)c(C(=O)O)cn(C3CC3)c12 [MOXIFLOXACIN],4,0.125,–,–,0.5,1,–,–,–,–,–,–,–,–,–,–,4,2,2
